Biological target: T1, human PAH with the R408W mutation (A375 R408W cells) (Homo sapiens, UniProt P00439, R408W)
T1 construct: expressed in transfected cells
T1 sequence (P00439 1-452 R408W): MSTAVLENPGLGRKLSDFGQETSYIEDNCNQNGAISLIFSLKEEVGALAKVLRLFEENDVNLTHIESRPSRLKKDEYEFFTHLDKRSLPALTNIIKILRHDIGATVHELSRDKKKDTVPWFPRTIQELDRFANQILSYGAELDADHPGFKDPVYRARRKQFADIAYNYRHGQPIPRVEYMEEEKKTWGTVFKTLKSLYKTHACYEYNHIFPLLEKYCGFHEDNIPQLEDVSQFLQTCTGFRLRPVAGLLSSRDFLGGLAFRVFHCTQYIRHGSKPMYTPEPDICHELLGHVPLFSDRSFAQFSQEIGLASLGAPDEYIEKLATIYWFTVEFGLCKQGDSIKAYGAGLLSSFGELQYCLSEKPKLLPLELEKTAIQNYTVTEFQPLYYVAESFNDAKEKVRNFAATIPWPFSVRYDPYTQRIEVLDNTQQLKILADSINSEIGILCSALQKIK
Test: Cell Based Phenylalanine Flux Assay
Conditions: 24 hrs with compound, then 20 μM sepiapterin and 800 μM 13C9,15N-Phenylalanine for 4 hours, 13C-Tyrosine by LC-MS, average where tested multiple times
Procedure, shortened: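 LC-MS quantitation of 13C-tyrosine in media gave AC50 values. Stable A375 R408W PAH cells were preincubated 24 h with compound, then fed 800 μM labelled Phe plus 20 μM sepiapterin for 4 h. Dose curves were 10-point, tested in duplicate, averaged over repeat runs.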

[1] = A375 cells expressing R408W PAH

`O=C(c1cncs1)N1CCc2[nH]cnc2C1c1nc2ccc(Br)cc2o1` (stereo not shown) was tested, and the AC50 [1] was ≥ 5000 nM.

In the case of `Cc1ccc2oc([C@H]3c4nc[nH]c4CCN3C(=O)c3oc(-c4ccn(C)n4)nc3C(F)F)nc2c1` [Example 756, (R)-(4-(difluoromethyl)-2-(1-methyl-1H-pyrazol-3-yl)oxazol-5-yl)(4-(5-methylbenzo[d]oxazol-2-yl)-6,7-dihydro-1H-imidazo[4,5-c]pyridin-5(4H)-yl)methanone], the AC50 (A375 R408W cells) is reported as 1000 to 5000 nM.

With `O=C(c1ccn(-c2ccccn2)n1)N1CCc2[nH]cnc2C1c1nc2ccccc2o1` (stereo not shown) [listing 1 of 2 here] the AC50 [1] was ≥ 5000 nM.

Compound `Cn1nccc1C(=O)N1CCc2[nH]cnc2C1c1nc2cccc(F)c2o1` (stereo not shown) has an AC50 [1] of 1000 to 5000 nM.

For `NCCc1ccc2c(C(=O)N3CCc4[nH]cnc4C3c3nc4cc(F)ccc4o3)cnn2c1` (single isomer, unassigned) [4S enantiomer of 2-{3-[4-(5-fluoro-1,3-benzoxazol-2-yl)-1H,4], the AC50 [1] was ≥ 5000 nM.

Work on `O=C(c1oc(C2(O)CC2)nc1C(F)F)N1CCc2[nH]cnc2[C@H]1c1nc2cc(F)ccc2o1` [Example 141, (S)-(4-(difluoromethyl)-2-(1-hydroxycyclopropyl)oxazol-5-yl)(4-(5-fluorobenzo[d]oxazol-2-yl)-6,7-dihydro-1H-imidazo[4,5-c]pyridin-5(4H)-yl)methanone] yielded an AC50 (A375 R408W cells) of 500 to 1000 nM.

`FC(F)(F)c1cnc(N2Cc3[nH]cnc3[C@H]2c2nc3ccccc3o2)nc1` [Example 949, (S)-2-(5-(5-(trifluoromethyl)pyrimidin-2-yl)-1,4,5,6-tetrahydropyrrolo[3,4-d]imidazol-4-yl)benzo[d]oxazole] gave an AC50 (A375 R408W cells) of 1000 to 5000 nM.

In the case of `O=C(CC1CC(F)C1)N1CCc2[nH]cnc2[C@H]1c1nc2cc(F)ccc2o1` (stereo partly drawn) [Example 59, (S)-1-(4-(5-fluorobenzo[d]oxazol-2-yl)-6,7-dihydro-1H-imidazo[4,5-c]pyridin-5(4H)-yl)-2-(3-fluorocyclobutyl)ethanone], the AC50 (A375 R408W cells) is reported as 500 to 1000 nM.

With `CN(C)c1ccc2c(C(=O)N3CCc4[nH]cnc4[C@@H]3c3nc4cc(F)ccc4o3)cnn2c1` [Example 92, (R)-(6-(dimethylamino)pyrazolo[1,5-a]pyridin-3-yl)(4-(5-fluorobenzo[d]oxazol-2-yl)-6,7-dihydro-1H-imidazo[4,5-c]pyridin-5(4H)-yl)methanone] the AC50 (A375 R408W cells) was ≥ 5000 nM.

With `O=C(c1ccn(-c2ccccn2)n1)N1CCc2[nH]cnc2C1c1nc2ccccc2o1` (stereo not shown) [listing 2 of 2 here] the AC50 [1] was 1000 to 5000 nM.

In the case of `Cn1nc(C(F)F)cc1C(=O)N1CCc2[nH]cnc2[C@@H]1c1nc2ccccc2o1` [Example 732, (R)-(4-(benzo[d]oxazol-2-yl)-6,7-dihydro-1H-imidazo[4,5-c]pyridin-5(4H)-yl)(3-(difluoromethyl)-1-methyl-1H-pyrazol-5-yl)methanone], the AC50 (A375 R408W cells) is reported as ≥ 5000 nM.

For `Cn1cnc(-c2nc(C(F)F)c(C(=O)N3CCc4[nH]cnc4[C@H]3c3nc4cc(F)ccc4o3)o2)c1` [Example 641, (S)-(4-(difluoromethyl)-2-(1-methyl-1H-imidazol-4-yl)oxazol-5-yl)(4-(5-fluorobenzo[d]oxazol-2-yl)-6,7-dihydro-1H-imidazo[4,5-c]pyridin-5(4H)-yl)methanone], the AC50 (A375 R408W cells) was ≤ 500 nM.

For `COc1cccc2nc([C@H]3c4nc[nH]c4CCN3C(=O)c3ocnc3C(F)F)oc12` [Example 458, (R)-(4-(difluoromethyl)oxazol-5-yl)(4-(7-methoxybenzo[d]oxazol-2-yl)-6,7-dihydro-1H-imidazo[4,5-c]pyridin-5(4H)-yl)methanone], the AC50 (A375 R408W cells) was ≤ 500 nM.

`CC(C)(O)c1nc(C(F)F)c(C(=O)N2CCc3[nH]cnc3[C@@H]2c2nc3cccc(Cl)c3o2)o1` [Example 424, (R)-(4-(7-chlorobenzo[d]oxazol-2-yl)-6,7-dihydro-1H-imidazo[4,5-c]pyridin-5(4H)-yl)(4-(difluoromethyl)-2-(2-hydroxypropan-2-yl)oxazol-5-yl)methanone] was tested, and the AC50 (A375 R408W cells) was ≤ 500 nM.

For `Cc1ccc2c(C(=O)N3CCc4[nH]cnc4[C@@H]3c3nc4cc(F)ccc4o3)cnn2c1` [Example 20, (R)-(4-(5-fluorobenzo[d]oxazol-2-yl)-6,7-dihydro-1H-imidazo[4,5-c]pyridin-5(4H)-yl)(6-methylpyrazolo[1,5-a]pyridin-3-yl)methanone], the AC50 (A375 R408W cells) was ≥ 5000 nM.

In the case of `O=C(CCc1ncco1)N1CCc2[nH]cnc2C1c1nc2ccc(F)cc2o1` (stereo not shown), the AC50 [1] is reported as 1000 to 5000 nM.

For `Cc1cc(F)ccc1-c1nnc(C(=O)N2CCc3[nH]cnc3[C@@H]2c2nc3cc(F)ccc3o2)o1` [Example 78, (R)-(5-(4-fluoro-2-methylphenyl)-1,3,4-oxadiazol-2-yl)(4-(5-fluorobenzo[d]oxazol-2-yl)-6,7-dihydro-1H-imidazo[4,5-c]pyridin-5(4H)-yl)methanone], the AC50 (A375 R408W cells) was 1000 to 5000 nM.

For `COc1cc(F)c2oc([C@H]3c4nc[nH]c4CCN3C(=O)c3ocnc3C(F)F)nc2c1` [Example 664, (R)-(4-(difluoromethyl)oxazol-5-yl)(4-(7-fluoro-5-methoxybenzo[d]oxazol-2-yl)-6,7-dihydro-1H-imidazo[4,5-c]pyridin-5(4H)-yl)methanone], the AC50 (A375 R408W cells) was ≤ 500 nM.

For `O=C(c1ocnc1C(F)F)N1CCc2[nH]cnc2[C@@H]1c1nc2c(F)cccc2o1` [Example 170, (R)-(4-(difluoromethyl)oxazol-5-yl)(4-(4-fluorobenzo[d]oxazol-2-yl)-6,7-dihydro-1H-imidazo[4,5-c]pyridin-5(4H)-yl)methanone], the AC50 (A375 R408W cells) was 500 to 1000 nM.

`Cc1ccc(C)c2oc([C@H]3c4nc[nH]c4CCN3C(=O)c3oc(C(C)(C)O)nc3C(F)F)nc12` [Example 660, (R)-(4-(difluoromethyl)-2-(2-hydroxypropan-2-yl)oxazol-5-yl)(4-(4,7-dimethylbenzo[d]oxazol-2-yl)-6,7-dihydro-1H-imidazo[4,5-c]pyridin-5(4H)-yl)methanone] showed an AC50 (A375 R408W cells) of 1000 to 5000 nM.

For `O=C(c1oc(-c2ccccn2)nc1C(F)F)N1CCc2[nH]cnc2[C@@H]1c1nc2cc(F)ccc2o1` [Example 86, (R)-(4-(difluoromethyl)-2-(pyridin-2-yl)oxazol-5-yl)(4-(5-fluorobenzo[d]oxazol-2-yl)-6,7-dihydro-1H-imidazo[4,5-c]pyridin-5(4H)-yl)methanone], the AC50 (A375 R408W cells) was 1000 to 5000 nM.

With `C[C@H](O)c1nc(C(F)F)c(C(=O)N2CCc3[nH]cnc3[C@@H]2c2nc3cc(F)ccc3o2)o1` [Example 158, (4-(difluoromethyl)-2-((S)-1-hydroxyethyl)oxazol-5-yl)((R)-4-(5-fluorobenzo[d]oxazol-2-yl)-6,7-dihydro-1H-imidazo[4,5-c]pyridin-5(4H)-yl)methanone] the AC50 (A375 R408W cells) was 1000 to 5000 nM.

With `CN1CCN(c2nc(C(F)F)c(C(=O)N3CCc4[nH]cnc4[C@H]3c3nc4cc(F)ccc4o3)o2)CC1` [Example 403, (S)-(4-(difluoromethyl)-2-(4-methylpiperazin-1-yl)oxazol-5-yl)(4-(5-fluorobenzo[d]oxazol-2-yl)-6,7-dihydro-1H-imidazo[4,5-c]pyridin-5(4H)-yl)methanone] the AC50 (A375 R408W cells) was 500 to 1000 nM.

`Cc1cc(C(=O)N2CCc3[nH]cnc3[C@H]2c2nc3ccccc3o2)n(C)n1` [Example 779, (S)-(4-(benzo[d]oxazol-2-yl)-6,7-dihydro-1H-imidazo[4,5-c]pyridin-5(4H)-yl)(1,3-dimethyl-1H-pyrazol-5-yl)methanone] showed an AC50 (A375 R408W cells) of 1000 to 5000 nM.

In the case of `CC(C)(O)c1nc(C(F)F)c(C(=O)N2CCc3[nH]cnc3[C@H]2c2nc3c(C(F)(F)F)cccc3o2)o1` [Example 463, (S)-(4-(difluoromethyl)-2-(2-hydroxypropan-2-yl)oxazol-5-yl)(4-(4-(trifluoromethyl)benzo[d]oxazol-2-yl)-6,7-dihydro-1H-imidazo[4,5-c]pyridin-5(4H)-yl)methanone], the AC50 (A375 R408W cells) is reported as ≤ 500 nM.

Reference: patent US20250171437A1 (Agios Pharmaceuticals,Inc., priority 2022, published 2025)
